Experimental findings from patent US10336739B2, “4-hydroxy-3-(heteroaryl)pyridine-2-one APJ agonists” (BRISTOL-MYERS SQUIBB COMPANY, priority 2015, dated 2019) are described below.

Usually EC50 stands for the concentration giving half of the maximal effect.

Molecules are shown by their SMILES.

For one assay, the target named is human APJ receptor (Homo sapiens (Human), UniProt P35414). As to the kind of experiment: Intracellular cAMP accumulation assay (APJ hcAMP, HTRF). In kind it is cell-based. As to conditions: HEK293 cells stably expressing human APJ receptor; inhibition of forskolin-mediated cAMP production; read-out: Human APJ cAMP EC50 Potency range. The gist of the method: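 HEK293 cells stably expressing human APJ, 5,000 per well, exposed to compound with […] IBMX and 2 μM forskolin for 30 minutes at room temperature. cAMP measured by HTRF after lysis and 60 min detection incubation. EC50 from sigmoidal variable-slope fits of inhibition of forskolin-induced cAMP, quantified against a cAMP standard curve.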
human APJ receptor, sequence (P35414 whole entry): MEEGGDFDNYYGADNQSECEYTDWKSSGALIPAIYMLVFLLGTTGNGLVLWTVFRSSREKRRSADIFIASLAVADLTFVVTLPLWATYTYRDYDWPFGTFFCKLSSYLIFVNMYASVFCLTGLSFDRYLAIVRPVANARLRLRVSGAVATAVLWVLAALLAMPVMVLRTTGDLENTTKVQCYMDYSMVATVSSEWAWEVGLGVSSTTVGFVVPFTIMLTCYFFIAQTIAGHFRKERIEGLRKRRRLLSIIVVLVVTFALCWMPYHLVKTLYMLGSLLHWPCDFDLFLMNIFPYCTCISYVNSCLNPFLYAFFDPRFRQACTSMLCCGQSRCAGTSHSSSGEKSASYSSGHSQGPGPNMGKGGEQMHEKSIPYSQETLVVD
Turning to `CCCCc1[nH]c(=O)c(-c2nnc(Cc3csc(C)n3)o2)c(O)c1-c1cccc(CC)c1` [Example 137, 6-butyl-5-(3-ethylphenyl)-4-hydroxy-3-{5-[(2-methyl-1,3-thiazol-4-yl)methyl]-1,3,4-oxadiazol-2-yl}-1,2-dihydropyridin-2-one], the EC50 was in the range of 10 to 100 nM.

With `CCCCc1nc(O)c(-c2nnc(CNC)o2)c(O)c1-c1c(OC)cccc1OC` [Example 154, 6-butyl-5-(2,6-dimethoxyphenyl)-3-{5-[(methylamino)methyl]-1,3,4-oxadiazol-2-yl}pyridine-2,4-diol], the EC50 lay within 10 to 100 nM.

In the case of `CCCCc1nc(O)c(-c2nnc(CN(C)C(=O)Cc3ccccc3)o2)c(O)c1-c1c(OC)cccc1OC` [Example 155, N-({5-[6-butyl-5-(2,6-dimethoxyphenyl)-2,4-dihydroxypyridin-3-yl]-1,3,4-oxadiazol-2-yl}methyl)-N-methyl-2-phenylacetamide], the EC50 lay in the range of 0.01 to 10 nM.

The assay is the same for the next values; noted with them: HEK293 cells stably expressing human APJ receptor; inhibition of forskolin-mediated cAMP production; read-out: hAPJ cAMP EC50 Potency range.
For the compound `CCOCc1nc(O)c(-c2nnc(Cc3n[nH]c4ccccc34)o2)c(O)c1-c1c(OC)cccc1OC` [Example 132, 5-(2,6-dimethoxyphenyl)-6-(ethoxymethyl)-3-[5-(1H-indazol-3-ylmethyl)-1,3,4-oxadiazol-2-yl]pyridine-2,4-diol], the EC50 lay in the range of 0.01 to 10 nM.

As for `CCOCc1nc(O)c(-c2nnc(Cn3nnc4ccccc43)o2)c(O)c1-c1c(OC)cccc1OC` [Example 133, 3-[5-(1H-1,2,3-benzotriazol-1-ylmethyl)-1,3,4-oxadiazol-2-yl]-5-(2,6-dimethoxyphenyl)-6-(ethoxymethyl) pyridine-2,4-diol], the EC50 lay in the range of 0.01 to 10 nM.

`CCOCc1nc(O)c(-c2nnc(Cn3ncc4ccccc43)o2)c(O)c1-c1c(OC)cccc1OC` [Example 134, 5-(2,6-dimethoxyphenyl)-6-(ethoxymethyl)-3-[5-(1H-indazol-1-ylmethyl)-1,3,4-oxadiazol-2-yl]pyridine-2,4-diol]: the EC50 is 0.01 to 10 nM.

As to `CCOCc1nc(O)c(-c2nnc(Cc3ccc(F)cc3)o2)c(O)c1-c1c(OC)cccc1OC` [Example 135, 5-(2,6-dimethoxyphenyl)-6-(ethoxymethyl)-3-{5-[(4-fluorophenyl)methyl]-1,3,4-oxadiazol-2-yl}pyridine-2,4-diol], the EC50 lay within 0.01 to 10 nM.

In the case of `CCOCc1nc(O)c(-c2nnc(Cn3ccc4ccccc43)o2)c(O)c1-c1c(OC)cccc1OC` [Example 136, 5-(2,6-dimethoxyphenyl)-6-(ethoxymethyl)-3-[5-(1H-indol-1-ylmethyl)-1,3,4-oxadiazol-2-yl]pyridine-2,4-diol], the EC50 lay in the range of 10 to 100 nM.

On to `CCCCc1nc(O)c(-c2nnc(Cc3noc4ccccc34)o2)c(O)c1-c1ccccc1` [Example 138, 3-[5-(1,2-benzoxazol-3-ylmethyl)-1,3,4-oxadiazol-2-yl]-6-butyl-5-phenylpyridine-2,4-diol], for which the EC50 lay within 10 to 100 nM.

`CCCCc1nc(O)c(-c2nnc(Cc3ccc(F)c(F)c3)o2)c(O)c1-c1cccc(OC)c1` [Example 139, 6-butyl-3-{5-[(3,4-difluorophenyl)methyl]-1,3,4-oxadiazol-2-yl}-5-(3-methoxyphenyl) pyridine-2,4-diol]: the concentration giving a half-maximal response (EC50) lay within 10 to 100 nM.

As for `CCCCc1nc(O)c(-c2nnc(Cc3ccc(F)c(F)c3)o2)c(O)c1-c1cccc(CC)c1` [Example 140, 6-butyl-3-{5-[(3,4-difluorophenyl)methyl]-1,3,4-oxadiazol-2-yl}-5-(3-ethylphenyl) pyridine-2,4-diol], the EC50 lay in the range of 10 to 100 nM.

For `CCCCc1nc(O)c(-c2nnc(Cc3ccc(F)c(F)c3)o2)c(O)c1-c1cccc(OC(F)(F)F)c1` [Example 141, 6-butyl-3-{5-[(3,4-difluorophenyl)methyl]-1,3,4-oxadiazol-2-yl}-5-[3-(trifluoromethoxy)phenyl]pyridine-2,4-diol], the EC50 lay in the range of 10 to 100 nM.

In the case of `CCCCc1nc(O)c(-c2nnc(Cc3ccc(F)c(F)c3)o2)c(O)c1-c1cccc(OCc2ccccc2)c1` [Example 142, 5-[3-(benzyloxy)phenyl]-6-butyl-3-{5-[(3,4-difluorophenyl)methyl]-1,3,4-oxadiazol-2-yl}pyridine-2,4-diol], the EC50 was in the range of 10 to 100 nM.

With `CCCCc1nc(O)c(-c2nnc(Cc3ccc(F)c(F)c3)o2)c(O)c1-c1cccc(CO)c1` [Example 143, 6-butyl-3-{5-[(3,4-difluorophenyl)methyl]-1,3,4-oxadiazol-2-yl}-5-[3-(hydroxymethyl)phenyl]pyridine-2,4-diol], the EC50 lay in the range of 0.01 to 10 nM.

Take `CCCCc1nc(O)c(-c2nnc(Cc3ccc(F)c(F)c3)o2)c(O)c1C1=CCCCC1` [Example 144, 6-butyl-5-(cyclohex-1-en-1-yl)-3-{5-[(3,4-difluorophenyl)methyl]-1,3,4-oxadiazol-2-yl}pyridine-2,4-diol]: the EC50 lay within 10 to 100 nM.

Take `CCCCc1nc(O)c(-c2nnc(Cc3ccc(F)c(F)c3)o2)c(O)c1-c1cccc(C(C)C)c1` [Example 145, 6-butyl-3-{5-[(3,4-difluorophenyl)methyl]-1,3,4-oxadiazol-2-yl}-5-[3-(propan-2-yl)phenyl]pyridine-2,4-diol]: the EC50 was 10 to 100 nM.

For the compound `CCCCc1nc(O)c(-c2nnc(Cc3ccc(F)c(F)c3)o2)c(O)c1-c1cccc(COC)c1` [Example 146, 6-butyl-3-{5-[(3,4-difluorophenyl)methyl]-1,3,4-oxadiazol-2-yl}-5-[3-(methoxymethyl)phenyl]pyridine-2,4-diol], the EC50 lay within 10 to 100 nM.

For the compound `CCCCc1nc(O)c(-c2nnc(Cc3ccc(F)c(F)c3)o2)c(O)c1-c1cccc(C(=O)NC(C)C)c1` [Example 147, 3-(2-butyl-5-{5-[(3,4-difluorophenyl)methyl]-1,3,4-oxadiazol-2-yl}-4,6-dihydroxypyridin-3-yl)-N-(propan-2-yl)benzamide], the EC50 lay in the range of 10 to 100 nM.

For the compound `CCCCc1[nH]c(=O)c(-c2nnc(Cc3csc(C)n3)o2)c(O)c1-c1cccc(C(C)C)c1` [Example 148, 6-butyl-4-hydroxy-3-{5-[(2-methyl-1,3-thiazol-4-yl)methyl]-1,3,4-oxadiazol-2-yl}-5-[3-(propan-2-yl)phenyl]-1,2-dihydropyridin-2-one], the EC50 fell in the range of 0.01 to 10 nM.

As to `CCCCc1[nH]c(=O)c(-c2nnc(Cc3csc(C)n3)o2)c(O)c1-c1cccc(C(=O)NC(C)C)c1` [Example 149, 3-(2-butyl-4-hydroxy-5-{5-[(2-methyl-1,3-thiazol-4-yl)methyl]-1,3,4-oxadiazol-2-yl}-6-oxo-1,6-dihydropyridin-3-yl)-N-(propan-2-yl)benzamide], the EC50 was in the range of 0.01 to 10 nM.

`CCCCc1[nH]c(=O)c(-c2nnc(Cc3csc(C)n3)o2)c(O)c1-c1cccc(C2CC2)c1` [Example 150, 6-butyl-5-(3-cyclopropylphenyl)-4-hydroxy-3-{5-[(2-methyl-1,3-thiazol-4-yl)methyl]-1,3,4-oxadiazol-2-yl}-1,2-dihydropyridin-2-one]: the concentration giving a half-maximal response (EC50) is 0.01 to 10 nM.

As to `CCCCc1[nH]c(=O)c(-c2nnc(Cc3csc(C)n3)o2)c(O)c1-c1cccc(OC)c1` [Example 151, 6-butyl-4-hydroxy-5-(3-methoxyphenyl)-3-{5-[(2-methyl-1,3-thiazol-4-yl)methyl]-1,3,4-oxadiazol-2-yl}-1,2-dihydropyridin-2-one], the EC50 was 0.01 to 10 nM.

Take `CCCCc1[nH]c(=O)c(-c2nnc(Cc3csc(C)n3)o2)c(O)c1-c1cccc(CO)c1` [Example 152, 6-butyl-4-hydroxy-5-[3-(hydroxymethyl)phenyl]-3-{5-[(2-methyl-1,3-thiazol-4-yl)methyl]-1,3,4-oxadiazol-2-yl}-1,2-dihydropyridin-2-one]: the EC50 fell in the range of 10 to 100 nM.

For `CCCCc1[nH]c(=O)c(-c2nnc(Cc3csc(C)n3)o2)c(O)c1-c1cccc(N2CCCC2)c1` [Example 153, 6-butyl-4-hydroxy-3-{5-[(2-methyl-1,3-thiazol-4-yl)methyl]-1,3,4-oxadiazol-2-yl}-5-[3-(pyrrolidin-1-yl)phenyl]-1,2-dihydropyridin-2-one], the EC50 was 10 to 100 nM.

For the compound `CCCCc1nc(O)c(-c2nnc(CN(C)C(=O)c3cccc(Cl)c3)o2)c(O)c1-c1c(OC)cccc1OC` [Example 156, N-({5-[6-butyl-5-(2,6-dimethoxyphenyl)-2,4-dihydroxypyridin-3-yl]-1,3,4-oxadiazol-2-yl}methyl)-3-chloro-N-methylbenzamide], the EC50 was in the range of 0.01 to 10 nM.

With `CCCCc1nc(O)c(-c2nnc(CN(C)C(=O)c3ccccn3)o2)c(O)c1-c1c(OC)cccc1OC` [Example 157, N-({5-[6-butyl-5-(2,6-dimethoxyphenyl)-2,4-dihydroxypyridin-3-yl]-1,3,4-oxadiazol-2-yl}methyl)-N-methylpyridine-2-carboxamide], the EC50 fell in the range of 0.01 to 10 nM.

Turning to `CCCCc1nc(O)c(-c2nnc(CNC(=O)COC)o2)c(O)c1-c1c(OC)cccc1OC` [Example 158, N-({5-[6-butyl-5-(2,6-dimethoxyphenyl)-2,4-dihydroxypyridin-3-yl]-1,3,4-oxadiazol-2-yl}methyl)-2-methoxyacetamide], the EC50 was 0.01 to 10 nM.

Turning to `CCCCc1nc(O)c(-c2nnc(CN(C)C(=O)c3ccncc3)o2)c(O)c1-c1c(OC)cccc1OC` [Example 159, N-({5-[6-butyl-5-(2,6-dimethoxyphenyl)-2,4-dihydroxypyridin-3-yl]-1,3,4-oxadiazol-2-yl}methyl)-N-methylpyridine-4-carboxamide], the EC50 lay in the range of 0.01 to 10 nM.

Consider `CCCCc1nc(O)c(-c2nnc(CNC(=O)c3cccnc3)o2)c(O)c1-c1c(OC)cccc1OC` [Example 160, N-({5-[6-butyl-5-(2,6-dimethoxyphenyl)-2,4-dihydroxypyridin-3-yl]-1,3,4-oxadiazol-2-yl}methyl)pyridine-3-carboxamide], for which the EC50 was 0.01 to 10 nM.

With `CCCCc1nc(O)c(-c2nnc(CN(C)C(=O)c3ccccc3Cl)o2)c(O)c1-c1c(OC)cccc1OC` [Example 161, N-({5-[6-butyl-5-(2,6-dimethoxyphenyl)-2,4-dihydroxypyridin-3-yl]-1,3,4-oxadiazol-2-yl}methyl)-2-chloro-N-methylbenzamide], the EC50 lay within 0.01 to 10 nM.
